Test results: US11331299B2, “Medicinal use of serrulatane diterpenes” (The University of Sydney, priority 2016, dated 2022)

What was measured:
BRD2(1) (h) bromodomain = biological target: T1, BRD2(1) (h) bromodomain (Homo sapiens, UniProt P25440); experiment: Epigenetic binding assay, Bromodomain; details: for % Inhibition of Control Specific Binding / inhibition at 10 µM: 10 μM; for inhibition at 10 µM: read-out: % Inhibition of Control Specific Binding
T1 construct: Bromodomain

BRD2(2) (h) bromodomain = biological target: T2, BRD2(2) (h) bromodomain (Homo sapiens, UniProt P25440); experiment: Epigenetic binding assay, Bromodomain; details: read-out: % Inhibition of Control Specific Binding
T2 construct: Bromodomain

FBXL11 (h) = biological target: T3, FBXL11 (h) (Homo sapiens, UniProt Q9Y2K7); experiment: Epigenetic enzyme assay, Demethylases (KDMs); assay type: biochemical; details: read-out: % Inhibition of Control Values
T3 sequence (Q9Y2K7 1-1162): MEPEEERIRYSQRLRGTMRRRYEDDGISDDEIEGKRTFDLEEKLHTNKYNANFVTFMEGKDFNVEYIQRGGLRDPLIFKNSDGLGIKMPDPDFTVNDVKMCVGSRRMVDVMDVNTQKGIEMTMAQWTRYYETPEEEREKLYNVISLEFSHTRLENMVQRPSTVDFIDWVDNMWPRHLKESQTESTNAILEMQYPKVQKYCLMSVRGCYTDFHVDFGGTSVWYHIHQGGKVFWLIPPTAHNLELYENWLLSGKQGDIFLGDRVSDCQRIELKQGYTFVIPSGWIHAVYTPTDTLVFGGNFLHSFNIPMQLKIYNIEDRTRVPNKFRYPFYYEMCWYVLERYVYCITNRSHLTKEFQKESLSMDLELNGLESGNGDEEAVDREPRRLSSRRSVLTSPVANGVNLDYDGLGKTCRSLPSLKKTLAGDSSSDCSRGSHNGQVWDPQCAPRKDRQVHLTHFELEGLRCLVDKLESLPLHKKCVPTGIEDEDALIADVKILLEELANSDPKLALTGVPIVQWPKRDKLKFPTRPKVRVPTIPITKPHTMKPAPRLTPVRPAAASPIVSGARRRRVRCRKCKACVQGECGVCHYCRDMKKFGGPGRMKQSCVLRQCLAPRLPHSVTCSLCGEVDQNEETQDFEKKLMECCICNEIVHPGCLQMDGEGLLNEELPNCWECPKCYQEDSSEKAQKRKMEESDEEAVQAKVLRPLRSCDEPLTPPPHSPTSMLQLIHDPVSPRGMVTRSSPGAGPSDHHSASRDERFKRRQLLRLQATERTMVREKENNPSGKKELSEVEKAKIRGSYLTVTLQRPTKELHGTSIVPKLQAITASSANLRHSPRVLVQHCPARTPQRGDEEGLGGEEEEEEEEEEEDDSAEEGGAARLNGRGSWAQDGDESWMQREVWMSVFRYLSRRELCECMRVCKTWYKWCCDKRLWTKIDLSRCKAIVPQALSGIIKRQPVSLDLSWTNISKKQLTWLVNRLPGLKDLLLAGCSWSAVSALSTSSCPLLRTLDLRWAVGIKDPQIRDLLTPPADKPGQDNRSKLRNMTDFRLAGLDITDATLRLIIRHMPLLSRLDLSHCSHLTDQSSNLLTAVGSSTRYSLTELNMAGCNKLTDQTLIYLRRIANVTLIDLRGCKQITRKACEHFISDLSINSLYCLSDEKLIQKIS

DOT1L (h) = DOT1L (h) (Homo sapiens, UniProt Q8TEK3); experiment: Epigenetic enzyme assay, Methyltransferases (MTs); assay type: biochemical; details: read-out: % Inhibition of Control Values
JMJD2C (h) = biological target: T4, JMJD2C (h) (Homo sapiens, UniProt Q9H3R0); experiment: Epigenetic enzyme assay, Demethylases (KDMs); assay type: biochemical; details: read-out: % Inhibition of Control Values
T4 sequence (Q9H3R0 1-1056): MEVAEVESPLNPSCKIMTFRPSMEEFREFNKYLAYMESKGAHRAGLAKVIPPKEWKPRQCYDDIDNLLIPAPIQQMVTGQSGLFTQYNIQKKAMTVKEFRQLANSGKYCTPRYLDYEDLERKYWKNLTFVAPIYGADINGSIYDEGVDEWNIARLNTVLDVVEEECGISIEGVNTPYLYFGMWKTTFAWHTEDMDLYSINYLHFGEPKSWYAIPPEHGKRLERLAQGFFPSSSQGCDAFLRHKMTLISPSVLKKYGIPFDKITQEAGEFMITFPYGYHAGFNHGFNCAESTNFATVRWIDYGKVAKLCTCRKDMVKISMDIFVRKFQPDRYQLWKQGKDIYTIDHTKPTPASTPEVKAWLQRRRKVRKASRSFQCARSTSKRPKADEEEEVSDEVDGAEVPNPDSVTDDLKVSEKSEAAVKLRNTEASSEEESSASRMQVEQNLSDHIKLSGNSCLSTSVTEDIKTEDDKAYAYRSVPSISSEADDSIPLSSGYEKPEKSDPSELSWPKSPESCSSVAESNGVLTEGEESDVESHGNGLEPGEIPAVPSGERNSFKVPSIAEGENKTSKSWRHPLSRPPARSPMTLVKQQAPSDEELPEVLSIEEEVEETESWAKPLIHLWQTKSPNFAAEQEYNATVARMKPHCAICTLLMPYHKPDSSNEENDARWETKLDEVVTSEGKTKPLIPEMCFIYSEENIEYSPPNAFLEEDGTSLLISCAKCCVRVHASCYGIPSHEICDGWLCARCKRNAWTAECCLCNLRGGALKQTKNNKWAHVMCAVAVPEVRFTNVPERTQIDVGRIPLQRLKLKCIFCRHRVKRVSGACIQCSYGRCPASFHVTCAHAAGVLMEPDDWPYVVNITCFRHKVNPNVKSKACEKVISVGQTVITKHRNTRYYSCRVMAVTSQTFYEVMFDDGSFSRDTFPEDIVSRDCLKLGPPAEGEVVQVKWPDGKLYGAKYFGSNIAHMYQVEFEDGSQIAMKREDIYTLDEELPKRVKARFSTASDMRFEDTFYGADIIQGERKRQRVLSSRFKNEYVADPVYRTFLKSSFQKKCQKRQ

T2 sequence (P25440 344-453 limits assumed): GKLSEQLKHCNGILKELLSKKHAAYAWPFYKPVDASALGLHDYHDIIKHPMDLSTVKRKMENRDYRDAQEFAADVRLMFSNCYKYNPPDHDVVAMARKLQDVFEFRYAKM
T1 sequence (P25440 74-180 limits assumed): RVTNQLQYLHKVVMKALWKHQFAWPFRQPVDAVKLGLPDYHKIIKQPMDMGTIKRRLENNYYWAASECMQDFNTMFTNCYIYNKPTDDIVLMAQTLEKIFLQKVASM
DOT1L (h), sequence (Q8TEK3 whole entry): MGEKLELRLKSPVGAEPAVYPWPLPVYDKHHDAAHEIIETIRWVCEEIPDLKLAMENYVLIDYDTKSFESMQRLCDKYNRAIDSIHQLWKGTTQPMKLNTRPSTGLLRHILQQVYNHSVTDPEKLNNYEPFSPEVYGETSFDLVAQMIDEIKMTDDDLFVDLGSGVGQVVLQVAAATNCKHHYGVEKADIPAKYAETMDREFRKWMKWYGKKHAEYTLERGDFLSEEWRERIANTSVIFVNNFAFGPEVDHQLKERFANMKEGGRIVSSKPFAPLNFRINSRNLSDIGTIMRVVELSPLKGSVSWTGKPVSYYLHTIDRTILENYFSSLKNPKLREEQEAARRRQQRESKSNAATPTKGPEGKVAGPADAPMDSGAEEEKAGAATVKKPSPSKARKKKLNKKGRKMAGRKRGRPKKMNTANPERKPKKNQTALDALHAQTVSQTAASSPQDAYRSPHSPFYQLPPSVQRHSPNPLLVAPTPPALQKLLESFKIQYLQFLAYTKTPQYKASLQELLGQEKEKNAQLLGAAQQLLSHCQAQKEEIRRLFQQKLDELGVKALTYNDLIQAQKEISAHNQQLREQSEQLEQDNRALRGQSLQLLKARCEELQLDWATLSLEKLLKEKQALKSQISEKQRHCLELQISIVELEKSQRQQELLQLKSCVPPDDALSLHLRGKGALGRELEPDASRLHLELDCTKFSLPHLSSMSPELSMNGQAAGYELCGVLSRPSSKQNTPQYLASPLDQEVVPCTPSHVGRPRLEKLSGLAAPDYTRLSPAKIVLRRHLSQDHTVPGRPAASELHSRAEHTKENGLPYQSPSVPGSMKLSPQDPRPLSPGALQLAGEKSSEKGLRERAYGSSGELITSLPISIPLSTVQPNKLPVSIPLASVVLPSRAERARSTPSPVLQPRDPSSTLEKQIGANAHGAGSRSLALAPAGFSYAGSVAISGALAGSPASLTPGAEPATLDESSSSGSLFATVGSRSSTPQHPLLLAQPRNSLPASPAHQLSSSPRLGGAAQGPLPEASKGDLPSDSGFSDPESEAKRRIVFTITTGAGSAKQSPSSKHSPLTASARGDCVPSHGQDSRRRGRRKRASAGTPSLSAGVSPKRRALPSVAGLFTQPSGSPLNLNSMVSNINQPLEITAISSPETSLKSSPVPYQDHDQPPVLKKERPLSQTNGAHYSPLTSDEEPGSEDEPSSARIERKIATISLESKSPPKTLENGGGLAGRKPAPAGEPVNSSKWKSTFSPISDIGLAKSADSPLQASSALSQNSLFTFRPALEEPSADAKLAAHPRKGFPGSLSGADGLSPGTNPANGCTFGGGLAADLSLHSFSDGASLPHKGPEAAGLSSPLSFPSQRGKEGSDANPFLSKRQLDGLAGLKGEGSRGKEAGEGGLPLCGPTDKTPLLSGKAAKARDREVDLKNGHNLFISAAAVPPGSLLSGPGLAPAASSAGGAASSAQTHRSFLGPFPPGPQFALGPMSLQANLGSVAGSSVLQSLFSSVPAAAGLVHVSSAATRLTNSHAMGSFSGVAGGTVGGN

Structure (SMILES) | % Inhibition of Control Specific Binding (BRD2(1) (h) bromodomain) | inhibition at 10 µM (BRD2(1) (h) bromodomain) [%] | inhibition at 10 µM (BRD2(2) (h) bromodomain) [%] | inhibition at 10 µM (FBXL11 (h)) [%] | inhibition at 10 µM (DOT1L (h)) [%] | inhibition at 10 µM (JMJD2C (h)) [%] | IC50 (BRD2(1) (h) bromodomain; Table 9, inhibition/concentration-response curve) [µM]
CC(C)=CCC[C@H](CO)[C@@H]1CC[C@@H](C)c2c1cc(C)c(O)c2O [Compound 1, 7,8,18-trihydroxyserrulat-14-ene] | significant inhibitory activity | 60 | 58 | 34 | -5 | 35 | 
CC(C)=CCC[C@@H]1C(O)Oc2c(C)cc(O)c3c2[C@H]1CC[C@H]3C (stereo partly drawn) [Compound 2, 5,18-epoxyserrulat-14-en-8,18-diol] | significant activity | 89 | 22 | 2 | 18 | 2 | 22
CC(C)=CCC[C@@H]1COc2c(C)cc(O)c3c2[C@H]1CC[C@H]3C [Compound 3, 5,18-epoxy-8-hydroxyserrulat-14-ene] |  | 19 | 18 | 11 | 13 | 8 | 
